Test results reported in patent publication US4247632A (Kikkoman Shoyu Co., Ltd., priority 1978, dated 1981).

What was measured:
[1] = test system: methylguanidine-decomposing enzyme; assay: Inhibition of the enzyme: residual activity after treatment with inhibitor; type: biochemical, Alcaligenes; settings: for Residual activity of enzyme (%): activity without inhibitor = 100; for Inhibition of the enzyme (in words): conditions and concentrations of Table 1
Description: A substrate solution having a methylguanidine sulfate concentration of 100 μg/ml is prepared by dissolving methylguanidine sulfate into 0.05 M sodium carbonate-sodium bicarbonate buffer solution (pH 11.0). […] If a precipitate is formed, the precipitate is removed by centrifugation or filtration. Thus, an enzymatic reaction fluid is obtained.
Then, each 50 μl of the enzymatic reaction fluid or the control is mixed with 1.5 ml of 0.1 mM solution of phenanthraquinone in dimethylformamide and 0.25 ml of 1 M aqueous solution of sodium hydroxide and subjected to reaction at room temperature for 40-50 minutes, and then 0.25 ml of concentrated hydrochloric acid and 2.5 ml of water are added. Then, the relative fluorescence intensities of the resulted reaction mixtures are measured with a fluorophotometer at an exciting wave length of 310 nm and a fluorescence wave length of 390 nm. The decrease in methylguanidine content is calculated from the difference in fluorescence intensities between each reaction mixture for the enzymatic reaction and the control.
In the expression of activity, a quantity of enzyme enough to decompose 1 μ-mole of methylguanidine per 1 minute at 30° C. is defined as one unit.

[2] = test system: methylguanidine-decomposing enzyme; assay: Stabilization of the enzyme; type: physicochemical, Alcaligenes; settings: 10% (V/W) of glycerin added
Text: The enzyme is stabilized by adding 10% (V/W) of glycerin to it.

[3] = test system: methylguanidine-decomposing enzyme; assay: Action and substrate specificity of the enzyme; type: biochemical, Alcaligenes
Text: This enzyme decomposes methylguanidine to form methylamine and urea: [drawing 1]
This enzyme exerts no action upon guanidoacetic acid (glycocyamine) and guanididosuccinic acid.

[4] = 1 mM inhibitor, 30° C., pH 9, 1 hour
[5] = 1 mM inhibitor, 30° C., pH 10, 60 minutes

O[C@H](CS)[C@H](O)CS (racemic) [Dithiothreitol, dithiothreitol]
Residual activity of enzyme (%) [1, 4]: 0%
Inhibition of the enzyme (in words) [1]: markedly inhibited

OCCS [2-Mercaptoethanol, 2-mercaptoethanol]
Residual activity of enzyme (%) [1, 4]: 0%
Inhibition of the enzyme (in words) [1]: markedly inhibited

O=[N+]([O-])[O-].[Ag+] [AgNO3, silver nitrate]
Residual activity of enzyme (%) [1, 5]: 4%
Inhibition of the enzyme (in words) [1]: markedly inhibited

[Cl][Hg][Cl] [HgCl2, mercurie chloride]
Residual activity of enzyme (%) [1, 5]: 0%
Inhibition of the enzyme (in words) [1]: markedly inhibited

II [I2, iodine]
Residual activity of enzyme (%) ([1]; 1 mM I2, 40° C., pH 7, 1 hour): 0%
Inhibition of the enzyme (in words) [1]: markedly inhibited

OCC(O)CO [glycerin]
Stabilization of the enzyme [2]: stabilized

N=C(N)NC(CC(=O)O)C(=O)O (centres unmarked) [guanididosuccinic acid]
Action of the enzyme upon the substrate [3]: no action

N=C(N)NCC(=O)O [guanidoacetic acid]
Action of the enzyme upon the substrate [3]: no action

CNC(=N)N [methylguanidine]
Action of the enzyme upon the substrate [3]: decomposes
